Active and inactive are the calls of the source. No cut-off for these calls is given here.
System: not listed separately
Test: Ratio of brain to plasma in LaFerla 3xTg-C57BL6 mouse at 30 mg/kg, po
Type: ADME, organism-based
Set-up: dose 30 mg/kg, route oral
Conditions: brain and plasma, read-out: BPR

| Kp | SMILES |
| --- | --- |
| 0.26 | COc1nc(-c2ccnc(NC(=O)C3CC3)c2)sc1C(N)=O |

Species on record: Homo sapiens
Test: Selectivity ratio for GSK3beta (unknown origin) to CK2A2 (unknown origin)
Conditions: not given

| Ratio | SMILES |
| --- | --- |
| 10 | COc1nc(-c2ccnc(NC(=O)C3CC3)c2)sc1C(N)=O |
| > 67 | COc1sc(-c2ccnc(NC(=O)C3CC3)c2)nc1C(N)=O |

Molecular target: Glycogen synthase kinase-3 beta (Homo sapiens, UniProt P49841)
Test: Inhibition of GSK3beta (unknown origin) activity by competitive binding assay
Conditions: not given

Glycogen synthase kinase-3 beta, sequence (P49841 whole entry): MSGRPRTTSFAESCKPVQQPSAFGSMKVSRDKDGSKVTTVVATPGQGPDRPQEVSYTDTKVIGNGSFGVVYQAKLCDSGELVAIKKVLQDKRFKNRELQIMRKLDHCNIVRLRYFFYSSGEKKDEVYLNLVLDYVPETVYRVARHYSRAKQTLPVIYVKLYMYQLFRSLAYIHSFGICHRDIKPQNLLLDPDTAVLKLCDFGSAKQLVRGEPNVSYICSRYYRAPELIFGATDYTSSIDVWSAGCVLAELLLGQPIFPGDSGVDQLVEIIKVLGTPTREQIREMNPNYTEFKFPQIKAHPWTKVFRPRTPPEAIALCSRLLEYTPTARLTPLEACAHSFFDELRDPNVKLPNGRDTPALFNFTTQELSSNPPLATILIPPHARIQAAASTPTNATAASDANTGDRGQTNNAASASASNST

| IC50 [nM] | SMILES |
| --- | --- |
| 90 | NC(=O)c1ccc(-c2ccnc(NC(=O)C3CC3)c2)cn1 |
| 5.9 | COc1nc(-c2ccnc(NC(=O)C3CC3)c2)ncc1C(N)=O |
| 730 | O=C1CCCc2cc(-c3ccnc(NC(=O)C4CC4)c3)ccc2N1 |
| 240 | O=C(Nc1cc(-c2ccc3cccnc3c2)ccn1)C1CC1 |
| 74 | O=C(Nc1cc(-c2ccc3ccncc3c2)ccn1)C1CC1 |
| 4.4 | CC(C)Oc1cc(-c2ccnc(NC(=O)C3CC3)c2)ncc1C(N)=O |
| 1.1 | COc1nc(-c2ccnc(NC(=O)C3CC3)c2)sc1C(N)=O |
| 13 | NC(=O)c1cnc(-c2ccnc(NC(=O)C3CC3)c2)s1 |
| 22 | COc1cc(-c2ccnc(NC(=O)C3CC3)c2)ncc1C(N)=O |
| 2.4 | O=C1NCCCc2cc(-c3ccnc(NC(=O)C4CC4)c3)ccc21 |
| 4.7 | O=C1NCCOc2cc(-c3ccnc(NC(=O)C4CC4)c3)ccc21 |
| 30 | COc1sc(-c2ccnc(NC(=O)C3CC3)c2)nc1C(N)=O |
| 37 | Cc1nc(-c2ccnc(NC(=O)C3CC3)c2)sc1C(N)=O |
| 0.45 | CC(C)Oc1nc(-c2ccnc(NC(=O)C3CC3)c2)sc1C(N)=O |
| 24 | Cn1nc(C(N)=O)cc1-c1ccnc(NC(=O)C2CC2)c1 |
| 7.5 | O=C(Nc1cc(-c2ccc3ncccc3c2)ccn1)C1CC1 |
| 140 | NC(=O)c1ccc(-c2ccnc(NC(=O)C3CC3)c2)nn1 |
| 610 | O=C(Nc1cc(-c2ccc3ccccc3c2)ccn1)C1CC1 |
| 0.29 | NC(=O)c1sc(-c2ccnc(NC(=O)C3CC3)c2)nc1OCC1CC1 |
| 2.4 | O=C1NCCc2cc(-c3ccnc(NC(=O)C4CC4)c3)ccc21 |
| 0.37 | NC(=O)c1sc(-c2ccnc(NC(=O)C3CC3)c2)nc1OC1CCC1 |
| 0.83 | CC(C)Oc1nc(-c2ccnc(NC(=O)C3CC3)c2)ncc1C(N)=O |
| 6.8 | NC(=O)c1cnc(-c2ccnc(NC(=O)C3CC3)c2)cc1OCC(F)(F)F |
| 7 | COc1cc(-c2ccnc(NC(=O)C3CC3)c2)cnc1C(N)=O |
| 11 | O=C1NCc2cc(-c3ccnc(NC(=O)C4CC4)c3)ccc21 |
| 30 | NC(=O)c1cnc(-c2ccnc(NC(=O)C3CC3)c2)cn1 |

System: Mus musculus
Test: Reduction in pTau396 level in LaFerla 3xTg-C57BL6 mouse at 30 mg/kg, po by ELISA
Type: functional, organism-based
Set-up: dose 30 mg/kg
Conditions: not given

| SMILES | inhibition |
| --- | --- |
| COc1nc(-c2ccnc(NC(=O)C3CC3)c2)sc1C(N)=O | Active |
| O=C1NCCc2cc(-c3ccnc(NC(=O)C4CC4)c3)ccc21 | Active |
